According to patent US20200179488A1, “Secretin Receptor Agonists to Treat Diseases or Disorders of Energy Homeostasis” (Technische Universität München, priority 2016, published 2020):

Experiments:
[1] = tested on: UCP1 expression; assay: UCP1 mRNA expression (qRT-PCR) in primary adipocytes from interscapular brown adipose tissue; format: cell-based, Mus musculus; conditions: 0.1 μM secretin or 0.5 μM isoproterenol, 6 hours, normalized to TFIIB (FIG. 4B)
Protocol: For culturing primary adipocytes male 129S1/SvImJ mice ([…] or UCP1-KO mice and wildtype littermates) at the age of 5-6 weeks were used for the dissection of inguinal and epidydimal white adipose tissue and interscapular brown adipose tissue depots. The tissue was carefully minced and treated with collagenase for 45 min at 37° C. The homogenate was filtered through a 250 μm nylon mesh and centrifuged at 500 g to collect the stromal vascular fraction (SVF). The SVF cell pellet was rinsed and seeded into XF96 V3-PS cell culture microplate (Seahorse Bioscience). After reaching confluency, induction medium containing 10% fetal bovine serum (FBS), 0.5 mM isobutylmethylxanthine, 125 nM indomethacin, 1 mM dexamethasone, 850 nM insulin and 1 nM T3 was added. […] Respiration was measured on day 7 of differentiation. […] RNA was eluted in 50 μl nuclease-free water and RNA concentration was determined spectrophotometrically (Infinite 200 PRO NanoQuant, Tecan, Männedorf/Switzerland). Reverse transcription into cDNA was performed with 500 ng RNA in a final volume of 10 μl (Quantitect Reverse Transcription Kit, Quiagen, Hilden/Germany). qRT-PCR was conducted on 384 well plates in a total volume of 12.5 μl comprising 6.25 μl SensiMix SYBR No-ROX (Bioline, London/UK), 250 nM forward and reverse primers, and 1 μl template cDNA (LightCycler 480 System, Roche Diagnostics, Rotkreuz/Switzerland). […]

[2] = tested on: UCP1 knockout mice; assay: Food intake on refeeding of fasted Ucp1 knockout mice; format: in vivo, Mus musculus; conditions: fasted 18 h, 5 nmol i.p., 4 hours of refeeding, compared to wildtype (FIG. 8)
Protocol: (§1) For the measurement of food intake, a feeding-drinking-activity (FDA) device was used (TSE Systems, Bad Homburg/Germany). During the measurement mice were single-housed in type-III cages. Mice were habituated to the new cage environment and received every morning at 10 a.m. a single daily intraperitoneal (i.p.) PBS-injection for four days ahead of the experiment start. The body weight of the mice was measured every day. On day four day of habituation the food was removed from the cages at 5 p.m., and the mice were food deprived over night with ad libitum access to water. On the next morning, mice were i.p. injected with either PBS as control or secretin (rat, Tocris, Art Nr 1919). The latter was given in different doses. Subsequently the mice were refed ad libitum while monitoring food intake during the following 72 hours. […] Food intake was calculated from the decrease in feeder weight. The results were exported into a spreadsheet calculation table (Excel, Microsoft) and analyzed with a software package for statistics and graphics (GraphPad Prism 4.0, GraphPad Software, San Diego, USA).
(§2) Next to thermogenesis, brown fat has been proposed to function in the thermoregulatory control of feeding. […] Just before refeeding, mice were intra-peritoneally injected with 5 nmol secretin solved in PBS, or PBS as the vehicle control, and food intake was monitored for the following three days.

[3] = tested on: fasted mice; assay: Food intake on refeeding of fasted wildtype mice; format: in vivo, Mus musculus; conditions: mice fasted 18 h, 5 nmol i.p. before refeeding, p=0.0181 (FIG. 7)
Protocol: as §1, §2

secretin
UCP1 mRNA expression in brown adipocytes versus PBS [1]: significantly increased the expression of the UCP1 gene | refeeding food intake in Ucp1 knockout mice [2]: did not inhibit refeeding | food intake during the first two hours of refeeding versus PBS [3]: significant inhibition of food intake
